The results in this text go back to US20090029972A1, “Dibenzodiazepinone Analogues, Processes for Their Production and Their Use as Pharmaceuticals” (Ecopia BioSciences Inc, priority 2004, published 2009).

The AUC is the area under the concentration-time curve, a measure of exposure. Low values mean low exposure, high ones high exposure. The term GI50 denotes the concentration at which growth is held to half of that of the control. Read a high GI50 as lower sensitivity of the cells.

Entries after “also recorded” stand apart in the source; their conditions may differ. Bounds are passed on as bounds.

Series [1] has as its system C6 glioblastoma. Put plainly: In vivo efficacy in glioma model, first series (treatment 24 hrs after inoculation). The following applies: all treated groups (10-30 mg/kg i.p.), Anova and Dunnett's test. Set-up: species or system Mus musculus nude mice. The procedure: The aim of this study was to test whether Compounds 1 and 2 prevent or delay tumor growth in C6 glioblastoma cell-bearing mice, and to determine an effective dosage regimen.
Animal experiments were performed according to ethical guidelines of animal experimentation (Charte du comité d′éthique du CNRS, juillet 2003) and the English guidelines for the welfare of animals in experimental neoplasia (WORKMAN, P., […], P., BALKWILL, F., et al. (1998). United Kingdom Coordinating Committee on Cancer Research (UKCCCR) Guidelines for the welfare of animals in experimental neoplasia (Second Edition, July 1997; British Journal of Cancer, 77:1-10). Any dead or apparently sick mice were promptly removed and replaced with healthy mice. Sick mice were euthanized upon removal from the cage. […]
(§1) Tumor Cell Line: The C6 cell line was cloned from a rat glial tumor induced by N-nitrosomethyurea (NMU) according to Premont et al. (Premont J, Benda P, Jard S., [3H] norepinephrine binding by rat glial cells in culture. Lack of correlation between binding and adenylate cyclase activation. Biochim Biophys Acta. 1975 Feb. 13; 381(2):368-76.) after series of alternate culture and animal passages. […] The cells were counted in a hemocytometer and their viability assessed by 0.25% trypan blue exclusion. […]

Series [2] relates to C6 glioblastoma. Nature of the series: In vivo efficacy in glioma model, second series (treatment from day 10). Also noted: species or system Mus musculus nude mice.
Source text: The aim of this study was to test whether Compounds 1 and 2 prevent or delay tumor growth in C6 glioblastoma cell-bearing mice, and to determine an effective dosage regimen. […]
as §1
In a second series of experiments, treatment started at day 10 following inoculation of C6 cells when tumors became palpable (around 100 to 200 mm^3). […] Tumor volume was measured every second day until the end of the treatment using callipers. […]

The nature of series [3]: Pharmacokinetic profiles, plasma. The following applies: female, Crl: CD1, mouse, ip, 30 mg/kg. The class given is in vivo, female Crl: CD1 mice. As for the experimental part:
Compounds 1 and 2 were separately dissolved in ethanol (5%), Polysorbate 80 (15%), PEG 400 (5%) and dextrose (5%) at a final concentration of 6 mg/ml (for all parenteral administration routes). For oral […], Compound 1 was solubilized in Cremophor® EL/Ethanol (50%:50%) at a final concentration of 6 mg/ml. Prior to dosing, animals (female Crl: CD1 mice; 6 weeks of age, 22-24 g) were weighed, randomly selected and assigned to the different treatment groups. Compound 1 was administered by the intravenous (iv), subcutaneous (sc), intraperitoneal (ip), or oral (po) route to the assigned animals. Compound 2 was administered by the intravenous (iv), or intraperitoneal (ip) route to the assigned animals. […] Samples were analysed by LC/MS/MS.
Plasma values of Compounds 1 and 2 falling below the limit of quantitation (LOQ) were set to zero.
The following pharmacokinetic parameters were calculated: area under the plasma concentration versus time curve from time zero to the last measurable concentration time point (AUC0-t), area under the plasma concentration versus time curve extrapolated to infinity (AUCinf), maximum observed plasma concentration (Cmax), time of maximum plasma concentration (tmax), apparent first-order terminal elimination rate constant (kel), apparent first-order terminal elimination half-life will be calculated as 0.693/kel (t1/2). […]

Another series can be described thus: in vivo. The following applies: CD-1 nu/nu, mouse, iv.
The conditions of series [4]: for several days post-injection, ip and iv.
Series [5] has as its system HT-29, SF268, MDA-MB-231 and PC-3 cell lines. Nature of the series: In vitro cytotoxic activity, four cell lines together (average, comparison). The class given is cell-based. The note with it: for anticancer activity compared with Compound 1: Table 12 cell lines. As for the experimental part: (§2) Compounds were dissolved at 10 mM in DMSO. Dilution in vehicle to concentrations of 30, 10, 3, 1 and 0.3 μM were prepared immediately before assays. Depending on the cell line's growth characteristics, 4000-10000 cells were plated in two 96-wells pates (day 0) and incubated for 16 hours. The following day, propidium iodide was added to one of the two plates and fluorescence measured (Tz). Test compounds were added to the second plate, as well as vehicle control, and cells further incubated for 96 hours. Each compound was tested at each concentration and in triplicates. The equivalent cell number was determined after adding propidium iodide by measuring the signal by fluorescence (C for control).

The test system of series [6] is HT-29 (colorectal carcinoma). Put plainly: In vitro cytotoxic activity GI50, method (a), HT-29. The class given is cell-based. The note with it: Homo sapiens, 96 hours incubation, propidium iodide. The procedure:
as §2

A further series concerns SF268 (CNS). Put plainly: In vitro cytotoxic activity GI50, method (a), SF-268. The class given is cell-based. The note with it: Homo sapiens, 96 hours incubation, propidium iodide. As for the experimental part: as §2
Series [7] relates to PC-3 (prostate adenocarcinoma). Nature of the series: In vitro cytotoxic activity GI50, method (a), PC-3. The class given is cell-based. The following applies: 96 hours incubation, propidium iodide. As for the experimental part:
as §2

For series [8], the system named is MDA-MB-231 (mammary gland adenocarcinoma). Put plainly: In vitro cytotoxic activity GI50, method (a), MDA-MB-231. The class given is cell-based. The note with it: Homo sapiens, 96 hours incubation, propidium iodide. The procedure:
as §2

Consider `CC(C)=CCC/C(C)=C/CC/C(C)=C/CN1C(=O)c2cccc(O)c2Nc2c(O)cc(O)cc21` [Compound 1, 10-farnesyl-4,6,8-trihydroxy-5,10-dihydrodibenzo[b,e][1,4]diazepin-11-one], for which the “mean value of the tumor volume of treated groups vs saline group” value in the series with C6 glioblastoma [1] is “significantly reduced”; in the series on C6 glioblastoma [2] (all treated groups (20-30 mg/kg i.p.), Anova and Dunnett's test) it was “significantly reduced”. The “Histological analysis of tumor sections” value in the series on C6 glioblastoma [2] (20-30 mg/kg, FIG. 3) was “cell density of tumor treated with Compound 1 appears decreased; also recorded: cell density was decreased and the nuclei of remaining tumor cells appeared larger and pycnotic”. In [3], this molecule displayed an AUC of 9.5 µM·h. Also, in “in vivo”, the MTD was 150 mg/kg.
As for `CC(C)=CCC/C(C)=C/CC/C(C)=C/CN1C(=O)c2cccc(O)c2N(C)c2c(O)cc(O)cc21` [Compound 2, 10-farnesyl-4,6,8-trihydroxy-5-methyl-5,10-dihydro-dibenzo[b,e][1,4]diazepin-11-one], the weight losses entry in [4] is reported as “about 7%”. Moreover, the MTD in “in vivo” was no less than 100 mg/kg.
Turning to `CC(C)CCCC(C)CCCC(C)CCN1C(=O)c2cccc(O)c2Nc2c(O)cc(O)cc21` (stereo not drawn) [Compound 23, 10-(3,7,11-trimethyldodecyl)-4,6,8-trihydroxy-5,10-dihydro-dibenzo[b,e][1,4]diazepin-11-one], in series [5], the “anticancer activity compared with Compound 1” value is “generally more active than Compound 1”.
Take `CC(C)=CCC/C(C)=C/CC/C(C)=C/CN1C(=O)c2cccc(O)c2Nc2c1cc(O)c(Br)c2O` [Compound 24, 10-(farnesyl)-7-bromo-4,6,8-trihydroxy-5,10-dihydro-dibenzo[b,e][1,4]diazepin-11-one]: in series [5], the “anticancer activity compared with Compound 1” value was “generally more active than Compound 1”.
Take `CC(=O)Oc1cc(OC(C)=O)c2c(c1)N(C/C=C(\C)CC/C=C(\C)CCC=C(C)C)C(=O)c1cccc(OC(C)=O)c1N2` [Compound 25, 4,6,8-triacetoxy-10-farnesyl-5,10-dihydro-dibenzo[b,e][1,4]diazepin-11-one]: in [5], the “anticancer activity compared with Compound 1” value was “generally more active than Compound 1”. The GI50 in [5] (average of four cell lines, method (a)) is 3.82 µM; in series [6], 9.33 µM; in the series with SF268 (CNS) it was 1.95 µM; in series [7], 1.2 µM; in series [8] it was 2.79 µM.
